Measurements: patent US4218453A, “N-Substituted hexahydro-6-canthinones for treating cardio-circulatory, cerebrovascular, and respiratory dysfunction” (priority 1976, dated 1980)

Tests used:
[1] = Acute toxicity, intragastric route, mice (LD50, Lichtfield and Wilcoxon); details: mouse, in vivo, po
Experimental: The compounds of the invention and vincamine also were administered by intragastric route to Charles River stock mice. The lethal doses for 50% (LD50) were determined graphically according to the method of Lichtfield and Wilcoxon (J. Pharmacol. Exp. Therap. […], 96, 99).

Charles River stock mice = assay: Hypobaric anoxia test on mice (survival time); format: in vivo; details: for activity relative to vincamine: comparison on the basis of fractions of LD50
Experimental: Charles River stock mice of the same sex, weighting about 20±2 g are shared into three lots of 10 animals each. The lots 1 and 2 comprise treated animals, i.e. those having received either a substance to be tested or vincamine, together with solvent, at 1 ml/100 g of body weight. The third lot comprises control animals i.e. those having only received solvent at 1 ml/100 g of body weight.
The compounds examined were administered by intragastric route 15 minutes before the experiment. The doses as applied correspond to 1/5, 1/10, 1/20 of the LD50 for the compounds of the invention and 1/5 of LD50 for vincamine.
The animals were placed in an atmosphere impoverished in oxygen by creating a partial vacuum (190 mm Hg, corresponding to 5.25% oxygen), in about 30 seconds.
The survival time of the mice was measured with a chronometer. Said time is increased by the agents capable of enhancing oxygenation of tissues and more particularly brain oxygenation.
The percentages of survival time increase with respect to the values obtained for the control animals are calculated.

Compound: CN1CCc2c3n(c4ccccc24)C(=O)CCC31 (stereo not drawn) [OC-330]
- LD50 ([1]; mice): 310 mg/kg
- Variation % (survival time increase vs control) (Charles River stock mice; Table II, 1st experiment, 60 mg/kg or LD50/5, intragastric 15 min before): 212%
- Survival time (Charles River stock mice; Table II, 1st experiment, 60 mg/kg or LD50/5, intragastric 15 min before, control 39 (± 2)): 122 (± 4) sec.
- Variation % (survival time increase vs control) (Charles River stock mice; Table II, 2nd experiment, 30 mg/kg or LD50/5 (so in the source)): 71%
- Survival time (Charles River stock mice; Table II, 2nd experiment, 30 mg/kg or LD50/5 (so in the source), control 39 (± 3)): 67 (± 3) sec.
- effect compared with vincamine at 1/5 LD50 (Charles River stock mice; at doses corresponding to 1/10 LD50 for mice (p.o.)): exerts an effect whose intensity is comparable to vincamine at 1/5 LD50
- activity relative to vincamine (Charles River stock mice): about two times more active than vincamine

Compound: CCN1CCc2c3n(c4ccccc24)C(=O)CCC31 (stereo not drawn) [OC-331, 3-ethyl-1,2,3,3a,4,5-hexahydro-6-canthinone]
- LD50 ([1]; mice): 411 mg/kg
- Variation % (survival time increase vs control) (Charles River stock mice; Table III, 1st experiment, 80 mg/kg or LD50/5): 214%
- Survival time (Charles River stock mice; Table III, 1st experiment, 80 mg/kg or LD50/5, control 39 (± 2)): 122 (± 1) sec.
- Variation % (survival time increase vs control) (Charles River stock mice; Table III, 2nd experiment, 40 mg/kg or LD50/10): 105%
- Survival time (Charles River stock mice; Table III, 2nd experiment, 40 mg/kg or LD50/10, control 39 (± 1)): 80 (± 3) sec.
- Variation % (survival time increase vs control) (Charles River stock mice; Table III, 3rd experiment, 20 mg/kg or LD50/20): 75%
- Survival time (Charles River stock mice; Table III, 3rd experiment, 20 mg/kg or LD50/20, control 39 (± 1)): 57 (± 4) sec.
- effect compared with vincamine at 1/5 LD50 (Charles River stock mice; at doses corresponding to 1/20 LD50 for mice (p.o.)): exerts an effect comparable to vincamine at 1/5 LD50
- activity relative to vincamine (Charles River stock mice): about four times more active than vincamine

Compound: CN1CCc2c3n(c4c(O)cccc24)C(=O)CCC31 (stereo not drawn) [OC-332]
- LD50 [1]: 527 mg/kg
- Variation % (survival time increase vs control) (Charles River stock mice; Table IV, 100 mg/kg or LD50/5): 117%
- Survival time (Charles River stock mice; Table IV, 100 mg/kg or LD50/5, control 35 (± 3)): 76 (± 1) sec.
- effect relative to vincamine (Charles River stock mice; at equally toxic dose): about 1.5 times higher

Compound: CC[C@]12CCCN3CCc4c(n(c5ccccc45)[C@@](O)(C(=O)OC)C1)[C@@H]32 [Vincamine, vincamine, reference compound]
- LD50 ([1]; mice): 970 mg/kg
- Variation % (survival time increase vs control) (Charles River stock mice; Table II, 1st experiment, vincamine 200 mg/kg, LD50/5): 67%
- Survival time (Charles River stock mice; Table II, 1st experiment, vincamine 200 mg/kg, LD50/5, control 39 (± 2)): 65 (± 1) sec.
- Variation % (survival time increase vs control) (Charles River stock mice; Table II, 2nd experiment, vincamine 200 mg/kg or LD50/5): 67%
- Survival time (Charles River stock mice; Table II, 2nd experiment, vincamine 200 mg/kg or LD50/5, control 39 (± 3)): 65 (± 2) sec.
- Variation % (survival time increase vs control) (Charles River stock mice; Table III, 1st experiment, vincamine 200 mg/kg or LD50/5): 67%
- Survival time (Charles River stock mice; Table III, 1st experiment, vincamine 200 mg/kg or LD50/5, control 39 (± 2)): 65 (± 3) sec.
- Variation % (survival time increase vs control) (Charles River stock mice; Table III, 2nd experiment, vincamine 200 mg/kg or LD50/5): 67%
- Survival time (Charles River stock mice; Table III, 2nd experiment, vincamine 200 mg/kg or LD50/5, control 39 (± 1)): 65 (+ 1) sec.
- Variation % (survival time increase vs control) (Charles River stock mice; Table III, 3rd experiment, vincamine 200 mg/kg or LD50/5): 59%
- Survival time (Charles River stock mice; Table III, 3rd experiment, vincamine 200 mg/kg or LD50/5, control 39 (± 1)): 52 (± 1) sec.
- Variation % (survival time increase vs control) (Charles River stock mice; Table IV, vincamine 200 mg/kg or LD50/5): 77%
- Survival time (Charles River stock mice; Table IV, vincamine 200 mg/kg or LD50/5, control 35 (± 3)): 62 (± 4) sec.
